Twelve substances from patent US10092620B2, “Uses of cyclic peptides for treating and preventing atherosclerosis” (THE SCRIPPS RESEARCH INSTITUTE, priority 2013, dated 2018) can be followed below.

Non-standard residues stand in square brackets, D forms with d. 2Nal = N[C@@H](Cc1ccc2ccccc2c1)C(=O)O; d3Pal = N[C@H](Cc1cccnc1)C(=O)O; Orn = NCCC[C@H](N)C(=O)O

The assay relates to HDL in human plasma. The experiment in a line: pre-beta HDL ELISA assay: remodeling HDL in human plasma in vitro. It is filed as biochemical. To be noted: pre-beta HDL ELISA. The protocol:
First, various cyclic peptides, including the majority of compounds shown in FIG. 2, were assessed for activities for remodeling HDL in human plasma in vitro. Unlike western blot which was used to generate data shown in FIG. 2, here a pre-beta HDL ELISA assay was used to measure pre-beta HDL levels. Results from the assay are shown in Table 1, which lists the peptides in the order of their activities in remodeling HDL.
Background: An ELISA detects its analyte on a solid surface through an enzyme-linked reagent.
Consider “52 (cyclo([dW]F[dF]Y[dR]H[dH]S); SMILES N=C(N)NCCC[C@H]1NC(=O)[C@H](Cc2ccc(O)cc2)NC(=O)[C@@H](Cc2ccccc2)NC(=O)[C@H](Cc2ccccc2)NC(=O)[C@@H](Cc2c[nH]c3ccccc23)NC(=O)[C@H](CO)NC(=O)[C@@H](Cc2c[nH]cn2)NC(=O)[C@H](Cc2c[nH]cn2)NC1=O) [compound 52]”, for which the “Pre-beta HDL generated (normalized level)” value worked out at 0.52. With “54 (cyclo([dW]L[dW]R[dE]Q[dE]R); SMILES CC(C)C[C@@H]1NC(=O)[C@@H](Cc2c[nH]c3ccccc23)NC(=O)[C@H](CCCNC(=N)N)NC(=O)[C@@H](CCC(=O)O)NC(=O)[C@H](CCC(N)=O)NC(=O)[C@@H](CCC(=O)O)NC(=O)[C@H](CCCNC(=N)N)NC(=O)[C@@H](Cc2c[nH]c3ccccc23)NC1=O) [compound 54]” the figure was 0.46. In the case of “55 (cyclo(L[dW]L[dW]L[dS]E[dK]); SMILES CC(C)C[C@@H]1NC(=O)[C@@H](Cc2c[nH]c3ccccc23)NC(=O)[C@H](CC(C)C)NC(=O)[C@@H](Cc2c[nH]c3ccccc23)NC(=O)[C@H](CC(C)C)NC(=O)[C@@H](CCCCN)NC(=O)[C@H](CCC(=O)O)NC(=O)[C@@H](CO)NC1=O) [compound 55]”, the “Pre-beta HDL generated (normalized level)” value stood at 0.35.

Consider “56 (cyclo([dF]F[dY]Y[dS]R[dK][Orn]); ring closure inferred) [compound 56]”, for which the “Pre-beta HDL generated (normalized level)” value amounted to 0.31. Under “57 (cyclo([dW]L[dW]K[dS]K); SMILES CC(C)C[C@@H]1NC(=O)[C@@H](Cc2c[nH]c3ccccc23)NC(=O)[C@H](CCCCN)NC(=O)[C@@H](CO)NC(=O)[C@H](CCCCN)NC(=O)[C@@H](Cc2c[nH]c3ccccc23)NC1=O) [compound 57]” stands 0.30; under “58 (cyclo([d3Pal]L[dW]K[dS]K[dS]K); ring closure inferred) [compound 58]”, 0.27. Under “59 (cyclo([dW]Y[dW]Y[dS]R[dS][dS]); SMILES N=C(N)NCCC[C@@H]1NC(=O)[C@@H](CO)NC(=O)[C@H](Cc2ccc(O)cc2)NC(=O)[C@@H](Cc2c[nH]c3ccccc23)NC(=O)[C@H](Cc2ccc(O)cc2)NC(=O)[C@@H](Cc2c[nH]c3ccccc23)NC(=O)[C@@H](CO)NC(=O)[C@@H](CO)NC1=O) [compound 59]” stands 0.24; under “60 (cyclo([dW][2Nal][dK]S[dK]S[dK]S); ring closure inferred) [compound 60]”, 0.20; under “61 (cyclo([dY]A[dY]L[dK]H[dK]K); SMILES CC(C)C[C@@H]1NC(=O)[C@@H](Cc2ccc(O)cc2)NC(=O)[C@H](C)NC(=O)[C@@H](Cc2ccc(O)cc2)NC(=O)[C@H](CCCCN)NC(=O)[C@@H](CCCCN)NC(=O)[C@H](Cc2c[nH]cn2)NC(=O)[C@@H](CCCCN)NC1=O) [compound 61]”, 0.19.

With “62 (cyclo([dY]Y[dV]Y[dH]H); SMILES CC(C)[C@H]1NC(=O)[C@H](Cc2ccc(O)cc2)NC(=O)[C@@H](Cc2ccc(O)cc2)NC(=O)[C@H](Cc2c[nH]cn2)NC(=O)[C@@H](Cc2c[nH]cn2)NC(=O)[C@H](Cc2ccc(O)cc2)NC1=O) [compound 62]”, the “Pre-beta HDL generated (normalized level)” value is on record as 0.17. For “64 (cyclo([dW]F[dW]Y[dR]S[dS]H); SMILES N=C(N)NCCC[C@H]1NC(=O)[C@H](Cc2ccc(O)cc2)NC(=O)[C@@H](Cc2c[nH]c3ccccc23)NC(=O)[C@H](Cc2ccccc2)NC(=O)[C@@H](Cc2c[nH]c3ccccc23)NC(=O)[C@H](Cc2c[nH]cn2)NC(=O)[C@@H](CO)NC(=O)[C@H](CO)NC1=O) [compound 64]”, the “Pre-beta HDL generated (normalized level)” value amounted to 0.16. Under “65 (cyclo([dY]G[dW]W[dN]N[dK]N); SMILES NCCCC[C@H]1NC(=O)[C@H](CC(N)=O)NC(=O)[C@@H](CC(N)=O)NC(=O)[C@H](Cc2c[nH]c3ccccc23)NC(=O)[C@@H](Cc2c[nH]c3ccccc23)NC(=O)CNC(=O)[C@@H](Cc2ccc(O)cc2)NC(=O)[C@H](CC(N)=O)NC1=O) [compound 65]” stands 0.11.
